Consider 19 molecules from US8344160B2, “Pyrrolone melanin concentrating hormone receptor-1 antagonists” (Bristol-Myers Squibb Company, priority 2008, dated 2013).

In general, Ki refers to the dissociation constant of the complex between target and ligand, obtained from inhibition or displacement. A lower Ki goes with higher affinity.

Test [1] concerns the target T1, mutated (E4Q, A5T) hMCHR1 receptor (Homo sapiens, UniProt Q99705, A5T/E4Q).
T1 construct: expressed in transfected cells; host or cells: HEK-293 (stably transfected), membrane preparation
As to the kind of experiment: Radioligand binding assay for assessment of MCHR1 activity. To be noted: membranes from stably transfected HEK-293 cells; competition with [Phe13,[125I]Tyr19]-MCH. On the procedure:
Radioligand Binding Assay for Assessment of MCHR1 Activity
Membranes from stably transfected HEK-293 cells expressing a mutated (E4Q, A5T) hMCHR1 receptor were prepared by dounce homogenization and differential centrifugation. Binding experiments were carried out with 0.5-1.0 ug of membrane protein incubated in a total of 0.2 ml in 25 mM HEPES (pH 7.4) with 10 mM MgCl2, 2 mM EGTA, and 0.1% BSA (Binding Buffer) for 90 min. For competition binding assays, reactions were carried out in the presence of with 0.06-0.1 nM [Phe^13, [^125I]Tyr^19]-MCH and increasing concentrations of unlabeled test molecules. Reactions were terminated by rapid vacuum filtration over 96 well-GFC UNIFILTER® plates pre-coated with 0.075 ml binding buffer containing 1% BSA, and washed 3 times with 0.4 ml of Phospho-buffered Saline (pH 7.4) containing 0.01% TX-100. Filters were dried, 0.05 ml microscint 20 was added to each well and radioactivity was subsequently quantified by scintillation counting on a TOPCOUNT® microplate scintillation counter (Packard). Inhibitory constants were determined by nonlinear least squares analysis using a four parameter logistic equation.

Test [2] is described as follows: Assessment of in vivo MCHR activity: body weight of rats with a choice of chow and high fat/high sugar diet. To be noted: male Sprague Dawley rats, 30 mg/kg p.o. daily day 0 through day 4, dosed as prodrug (Examples 57, 68, 66). More on the design: species or system rat. On the procedure: Male SPRAGUE DAWLEY® (CD, Charles River Breeding Laboratory) rats weighing approximately 240 grams were place in individual plastic cages with ALPHADRI® bedding. The room was maintained at 72° F. and 50% humidity, and a 12/12 light dark cycle with lights out at 1600 hours. The rats were conditioned for 5 days prior to the start of the study to having a choice of foods. A normal chow (HARLAN TEKLAD®, 2018) that contains 18% protein, 5% fat and 73% carbohydrate and a high fat high sugar diet (Research Diets (D2327)) that contains 20% protein, 40% fat and 40% carbohydrate where the carbohydrate is entirely sucrose and the fat is soybean and coconut oil. […] Body weight and consumption of both kinds of food as well as water intake were measured daily. Water was available ad lib throughout the study. Food consumption is presented as daily caloric consumption which is the sum of grams of chow multiplied by the Kcal per gram (3.5) plus grams of high fat high sugar multiplied by Kcal per gram (4.59).
Baseline body weight was measured prior to drug treatment on day 0 of the study. Baseline food consumption was the average of the 3 days prior to the first drug treatment. Drug was administered daily p.o. at 2.0 ml/kg at 1500 hours beginning on day 0 and continuing daily through day 4 as a suspension in 0.5% methyl cellulose, 0.1% Tween 80 in water at 3.0, 10 and 30 mg/kg p.o. All data were evaluated using ANOVA and Fishers PLSD statistics.

Counter-ions that a name gives are not always drawn.

T1 sequence (Q99705 whole entry E4Q/A5T): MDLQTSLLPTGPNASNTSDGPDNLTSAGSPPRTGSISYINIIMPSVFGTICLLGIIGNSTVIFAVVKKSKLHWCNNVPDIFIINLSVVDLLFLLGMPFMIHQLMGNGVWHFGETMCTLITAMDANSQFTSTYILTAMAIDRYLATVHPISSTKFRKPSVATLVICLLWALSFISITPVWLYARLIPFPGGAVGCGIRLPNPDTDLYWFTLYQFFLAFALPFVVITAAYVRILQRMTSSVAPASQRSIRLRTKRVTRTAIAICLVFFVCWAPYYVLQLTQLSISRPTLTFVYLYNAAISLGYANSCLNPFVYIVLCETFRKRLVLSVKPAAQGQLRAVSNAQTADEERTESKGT

For the molecule “5-(4-(2-Hydroxy-2-methylpropoxy)-3-methoxyphenyl)-2-(6-methoxypyridin-3-yl)-4H-thieno[3,2-c]pyrrol-6(5H)-one, trifluoroacetic acid salt [Example 41]”, the Ki in test [1] was 800 nM. In test [1], `COc1cc(N2Cc3cc(-c4ccc(Cl)cc4)sc3C2=O)ccc1OCC(C)(C)O` [Example 1, 2-(4-Chlorophenyl)-5-(4-(2-hydroxy-2-methylpropoxy)-3-methoxyphenyl)-4H-thieno[3,2-c]pyrrol-6(5H)-one] gave a Ki of 1.9 nM. In test [2], the “Weight Reduction versus Vehicle” value is 3.9%. Turning to `COc1cc(N2Cc3cc(-c4ccc(Cl)cc4)sc3C2=O)ccc1OC[C@H](O)C1CC1` [Example 2], the Ki in test [1] was found to be 2.5 nM. Consider `COc1cc(N2Cc3cc(-c4ccc(Cl)cc4)sc3C2=O)ccc1OCCN1CCCC1` [Example 3], for which the Ki in test [1] is 0.2 nM. `COc1cc(N2Cc3cc(-c4ccc(Cl)cc4)sc3C2=O)ccc1O` [Example 6] showed a Ki in test [1] of 30 nM. Molecule `CN[C@H]1CCN(c2ccc(N3Cc4cc(-c5ccc(Cl)cc5)sc4C3=O)cn2)C1` [Example 10] registered a Ki in test [1] of 0.3 nM. Take `COc1cc(N2Cc3cc(-c4ccc(Cl)cc4)sc3C2=O)ccc1OC[C@H](O)CS(C)(=O)=O` [Example 15]: the Ki in test [1] came to 0.6 nM. On to `CN(C)[C@@H]1CCN(c2ccc(N3Cc4cc(-c5ccc(Cl)cc5)sc4C3=O)cn2)C1` [Example 21, (R)-2-(4-Chlorophenyl)-5-(6-(3-(dimethylamino)pyrrolidin-1-yl)pyridin-3-yl)-4H-thieno[3,2-c]pyrrol-6(5H)-one], for which the Ki in test [1] came out at 0.2 nM.

`COc1cc(N2Cc3cc(-c4ccc(Cl)cn4)sc3C2=O)ccc1OCC(O)C(F)(F)F` (stereo not drawn) [Example 27] came in with a Ki in test [1] of 2.5 nM.

On to `COc1cc(N2Cc3cc(-c4ccc(Cl)cn4)sc3C2=O)ccc1OC[C@H](O)CS(C)(=O)=O` [Example 31], for which the “Weight Reduction versus Vehicle” value in test [2] was determined as 3.2%.

With `COc1cc(N2Cc3cc(-c4ncc(Cl)cn4)sc3C2=O)ccc1OCC(C)(C)O` [Example 33], in test [1], affinity was put at a Ki of 17 nM. In test [2], the “Weight Reduction versus Vehicle” value is on record as 4.8%.

In turn, `COc1cc(N2Cc3cc(-c4ncc(Cl)cn4)sc3C2=O)ccc1N1CCC(O)CC1` [Example 39] registered a Ki in test [1] of 33.6 nM.

`COc1cc(N2Cc3cc(-c4ccncc4)sc3C2=O)ccc1OCC(C)(C)O` [Example 43] registered a Ki in test [1] of 1290 nM. In test [1], `COc1cc(N2Cc3cc(-c4ccc(Cl)nc4)sc3C2=O)ccc1OCC(C)(C)O` [Example 44] registered a Ki of 21.6 nM. Consider `COc1cc(N2Cc3cc(-c4ccccn4)sc3C2=O)ccc1OCC(C)(C)O` [Example 49, 5-(4-(2-Hydroxy-2-methylpropoxy)-3-methoxyphenyl)-2-(pyridin-2-yl)-4H-thieno[2,3-c]pyrrol-6(5H)-one, trifluoroacetic acid salt], for which the Ki in test [1] was determined as 107 nM. In test [1], `COc1cc(N2Cc3nc(-c4ccc(Cl)cc4)sc3C2=O)ccc1OCC(C)(C)O` [Example 52, 2-(4-Chlorophenyl)-5-(4-(2-hydroxy-2-methylpropoxy)-3-methoxyphenyl)-4H-pyrrolo[3,4-d]thiazol-6(5H)-one] gave a Ki of 68 nM. In test [1], `COc1cc(N2Cc3nc(-c4ccc(Cl)cc4)oc3C2=O)ccc1OCC(C)(C)O` [Example 53, 2-(4-Chlorophenyl)-5-(4-(2-hydroxy-2-methylpropoxy)-3-methoxyphenyl)-4H-pyrrolo[3,4-d]oxazol-6(5H)-one] gave a Ki of 248 nM. In test [1], `COc1cc(N2Cc3cc(-c4ccc(Cl)cc4)oc3C2=O)ccc1OCC(C)(C)O` [Example 54, 2-(4-Chlorophenyl)-5-(4-(2-hydroxy-2-methylpropoxy)-3-methoxyphenyl)-4H-furo[3,2-c]pyrrol-6(5H)-one] gave a Ki of 13.3 nM. `COc1cc(N2Cc3cc(-c4ncc(Cl)cn4)sc3C2=O)ccc1OCC(C)(C)OC(=O)CN` [Example 68] displayed a Ki in test [1] of 17.6 nM.
